The record followed here is ChEMBL document CHEMBL3507680, “University of Dundee, Gates Library screen for HepG2 cell viability”.

The nature of this data set: Human HepG2 cell viability assay in 384 well format. Format: toxicity, cell-based. The arrangement: dose 125 nL, time 70.5 hour; cytotoxicity at 70.5 h: concentration not given beside the values. To be noted: HepG2 cells, read-out: Inhibition.
For the compound `CC(=O)N1CC(C(=O)NC(C)c2cnn(C)c2C)C1` (stereo not given), the cytotoxicity at 70.5 h is -4.41%. For `CCc1cc(N2CCN(c3cnccn3)CC2)n2nc(C)c(C)c2n1`, the cytotoxicity at 70.5 h is 10.7%.

For `Cc1cc(Br)ccc1C(=O)NCCN1CCCCCC1`, the cytotoxicity at 70.5 h was -10.6%. Regarding `COCCN(Cc1ccoc1)S(=O)(=O)c1ccc(F)c(Cl)c1`, the cytotoxicity at 70.5 h was found to be 42.1%. Then `Cc1cnc(CN(C)C2CCCN(c3cccnn3)C2)cn1` (stereo not given), with -0.507%; and `CN(C)c1cnnc(N2CCN(C(=O)Cc3ccccc3)CC2)c1`, with -8%. Take `Cc1nc(C)c(CC(=O)N2CCC(c3ccn4nccc4n3)CC2)s1`: the cytotoxicity at 70.5 h was -1.07%. Then `CCC(CO)NCc1ccc(-c2ccccc2F)o1` (stereo not given), with -6.8%; and `O=C(NCC1CC1)c1n[nH]c2c1CNCC2`, with -10.7%; and `c1ccc(CO[C@@H]2CN(Cc3cccnc3)[C@@H]3COC[C@@H]32)nc1`, with 5.82%. As for `COc1ncccc1C(=O)N(C)Cc1nc(-c2ccccn2)no1`, the figure is -8.07%; as for `N#Cc1cnc2ccccc2c1N1CCN(CCC(=O)O)CC1`, 1.24%; as for `Cc1ccc(C(C)NC(=O)CNCCn2cccn2)cc1C` (stereo not given), -10.7%. Then `O=C(CCc1ccccn1)NC1CCN(c2cccc(Cl)c2)C1` (stereo not given), with 39.6%; and `Cc1oncc1C(=O)N1CCC2(CCN(Cc3cccnc3)C2=O)C1` (stereo not given), with -3.48%; and `NC(=O)C1Cn2ccnc2C2(CCN(C(=O)NC3CCCC3)CC2)O1` (stereo not given), with -8.91%. With `CCNC(=O)Nc1ccc(N2CCC(OC)CC2)c(C(F)(F)F)c1`, the cytotoxicity at 70.5 h is -1.82%. For the compound `COc1ccc(Cn2nnnc2SCC2CCCN(C)C2)cc1` (stereo not given), the cytotoxicity at 70.5 h was -8.49%.

In the case of `CN(C)CCn1c2c(ccc1=O)CCN(Cc1cnn(C)c1)CC2`, the cytotoxicity at 70.5 h stood at 2.16%.

On to `c1cncc(CN2CCCC3(COCCN(c4nccs4)C3)C2)c1` (stereo not given), for which the cytotoxicity at 70.5 h is -5.78%.

For `O=C(Cn1cnc2cc3c(cc21)OCCCO3)NC1CCCC1`, the cytotoxicity at 70.5 h worked out at 25.4%. Consider `O=C(N[C@@H]1CN(Cc2ccccn2)[C@@H]2COC[C@@H]21)C1CCC1`, for which the cytotoxicity at 70.5 h is -1.02%. As for `CN(CCn1ccc2ccccc21)C(=O)CS(C)(=O)=O`, the figure is 18%. For `COc1cc(CNCC(O)c2ccccc2F)cc2c1OCO2` (stereo not given), the cytotoxicity at 70.5 h is -14%. Take `O=C(NCCNc1ncccn1)c1cnc(-c2ccccc2)nc1`: the cytotoxicity at 70.5 h is -2.38%. Turning to `CCN1CCOC(CNCc2c(Cl)nc3ccccn23)C1` (stereo not given), the cytotoxicity at 70.5 h was -21.6%. For `CCCc1nc(C(C)(C)NC(=O)C2CC(=O)N(C3CCCC3)C2)no1` (stereo not given), the cytotoxicity at 70.5 h was -11.9%. For `COc1ccc(O)c(C(=O)NCC2CCCN(C3CCOCC3)C2)c1` (stereo not given), the cytotoxicity at 70.5 h was -10.8%. As for `CCn1nc2c(cc1=O)CN(CC(=O)Nc1nccs1)CC2`, the figure is -2.47%.

Turning to `CCN1CCCC1Cn1ccc2ccc(C(=O)OC)cc2c1=O` (stereo not given), the cytotoxicity at 70.5 h was -8.61%. With `O=C(Nc1cccc(CNCc2ccsc2)c1)C1CC1`, the cytotoxicity at 70.5 h amounted to 7.14%. As to `CC(=O)Nc1nc(C(=O)N2CCCC2c2noc(C3CC3)n2)cs1` (stereo not given), the cytotoxicity at 70.5 h is -3.64%.

With `CC(C)c1cc(NC(=O)CN2CCCC2Cn2cccn2)on1` (stereo not given), the cytotoxicity at 70.5 h was -1.57%.

Consider `Cc1nc(C(=O)N(C)CC2CC2)nn1-c1ccccc1C(C)C`, for which the cytotoxicity at 70.5 h turned out to be 36%. Take `COc1cc(NC(=O)c2cc(Cl)ccc2F)c(C(=O)N(C)C)cc1OC`: the cytotoxicity at 70.5 h is -15.4%.

As for `Cc1ncc(CN2CCC3(CC2)CC(=O)N(C)C3)cn1`, the cytotoxicity at 70.5 h worked out at 4.13%. As for `Cc1nc(CNCc2c(C)nn(C)c2N2CCOCC2)cs1`, the cytotoxicity at 70.5 h was -15.5%. As for `CC(=O)N1CCCC(c2nc(N(C)C)ncc2-c2cccc(F)c2)C1` (stereo not given), the figure is 3.21%; as for `c1ccc(-c2nc(CCNCc3ccncc3)co2)cc1`, -5.13%; as for `CC(C)[C@H]1CN(Cc2ccccn2)C[C@@H]1NS(=O)(=O)C1CC1`, -3.34%. Consider `CCN1CCN(c2ccc(CNC(=O)c3c(C)noc3C)cn2)CC1`, for which the cytotoxicity at 70.5 h was determined as 21.7%. Regarding `Cc1cc(Cl)c(C)c(S(=O)(=O)N2CCN(Cc3ccccn3)CC2)c1Cl`, the cytotoxicity at 70.5 h came out at 40.2%. With `CC[C@H]1CN2CC[C@H]1C[C@@H]2CNC(=O)Nc1cccc(C(F)(F)F)c1`, the cytotoxicity at 70.5 h was -3.6%. Turning to `CC(C)(C)c1nnc2n1C(C(=O)N1CCOCC1)CC2` (stereo not given), the cytotoxicity at 70.5 h was -14.7%. Then `CCCn1cc(CN2CCCC2c2nccc(CN(C)C)n2)cn1` (stereo not given), with 21.3%.

Turning to `CSCc1cccc(S(=O)(=O)NCCCn2ccnc2)c1`, the cytotoxicity at 70.5 h is -5.18%. With `CCCN1CCC(N2CCC(Cn3cc(CC(C)O)nn3)CC2)CC1` (stereo not given), the cytotoxicity at 70.5 h was -6.23%. Turning to `Cc1c(Cl)c(C(=O)NN2CCOCC2)nn1C`, the cytotoxicity at 70.5 h was -8.4%. On to `CCc1nccn1CC(=O)Nc1cccc(C(=O)N(C)C)c1`, for which the cytotoxicity at 70.5 h turned out to be 7.42%.

For `COc1c(CNCc2ccnc(N(C)C)c2)c(C(C)C)nn1C`, the cytotoxicity at 70.5 h stood at 0.688%. For the compound `O=C(CC[C@@H]1CCCN2CCCC[C@H]12)NCCc1nc(O)cc(O)n1`, the cytotoxicity at 70.5 h was -5.7%. Then `COCCN1CCCC2(CCN(Cc3noc(C4CCCC4)n3)C2)C1=O` (stereo not given), with -4.8%; and `Cc1cc(C)c(CNC(=O)NCCC2CCCO2)c(=O)[nH]1` (stereo not given), with -2.77%; and `CC(C)CC(CNC(=O)NCc1cc[nH]n1)N1CCOCC1` (stereo not given), with 39.4%. As for `Cc1nc(CCC(=O)NCC(N)=O)cc(C2CCNCC2)n1`, the figure is -6.67%; as for `Cc1cc(N2CCN(C(=O)c3cn(C)c4ccccc34)CC2)nc(C)n1`, 20.3%. Take `Cc1cccc(CCC(=O)NCC2CCCN2c2cccnn2)c1` (stereo not given): the cytotoxicity at 70.5 h was 5.29%. Consider `Cc1cccc(N2CCN(CCS(=O)(=O)c3ccc(Br)cc3)CC2)c1C`, for which the cytotoxicity at 70.5 h was -9.15%. For `Cn1nccc1C(=O)NC(C)(C)c1noc(C(C)(C)C)n1`, the cytotoxicity at 70.5 h was -16.4%. In the case of `O=S(=O)(N1CCCCCC1)N1CCc2sccc2C1`, the cytotoxicity at 70.5 h was -5.4%. Consider `Cc1cnn(C(C)C2CC2)c1NC(=O)c1ncccc1O` (stereo not given), for which the cytotoxicity at 70.5 h came to 9.8%. For the compound `Cc1ccc(C(=O)NC(CN2CCCC2=O)c2ccccc2)cn1` (stereo not given), the cytotoxicity at 70.5 h turned out to be 2.77%. With `CCc1cnc(N2C[C@H]3C[C@H](C(=O)NC4CCC4)[C@@H](C2)O3)nc1`, the cytotoxicity at 70.5 h is -1.31%. For `O=C(c1ccco1)N1CCCC2(CN(Cc3ccsc3)CCO2)C1` (stereo not given), the cytotoxicity at 70.5 h was -5.26%. For the compound `COCC(=O)NCCC(=O)N1CCN(S(=O)(=O)c2ccc(Br)cc2)CC1`, the cytotoxicity at 70.5 h is 13.5%. Take `COc1c(C2CCCN2Cc2cccc(C(N)=O)c2)c(C)nn1C` (stereo not given): the cytotoxicity at 70.5 h was -2.05%.

On to `Cc1ccc(OCCN(C)Cc2nccn2C)c(C)c1`, for which the cytotoxicity at 70.5 h was -9.5%. With `O=C1CC(c2ccc(F)c(F)c2)c2snc(C(=O)O)c2N1` (stereo not given), the cytotoxicity at 70.5 h was determined as 8.54%. Then `Cc1cc(C)cc(CNc2ccc(C(=O)NC(C)CO)cc2)c1` (stereo not given), with -1.12%.

In the case of `CC(C)Cn1c(=O)n(CCCn2cccn2)c2cc(C(=O)O)cnc21`, the cytotoxicity at 70.5 h was -10.8%. Take `CN(CCOc1ccccc1F)S(=O)(=O)CC1CCOCC1`: the cytotoxicity at 70.5 h is -8.77%. Take `COCCCN1Cc2cccc(NC(=O)c3cc(F)ccc3F)c2C1`: the cytotoxicity at 70.5 h is -9.4%.

With `CC1CCCCN1c1nc2c(c(=O)[nH]1)CCN(Cc1ccccc1F)C2` (stereo not given), the cytotoxicity at 70.5 h was -5.68%.

On to `CCc1ccc(C2CCCCCN2Cc2nc(CCOC)no2)o1` (stereo not given), for which the cytotoxicity at 70.5 h was -6.85%.

On to `CC(C)c1noc(CCNC(=O)NCC2Cc3ccccc3O2)n1` (stereo not given), for which the cytotoxicity at 70.5 h was -13.5%. As for `CN1C(=O)CCC12CCCN(Cc1nccs1)C2` (stereo not given), the cytotoxicity at 70.5 h is 23.1%. As for `C/C=C(/C)C(=O)NS(=O)(=O)c1ccc(C(F)(F)F)cc1`, the figure is 0.976%; as for `COc1c(CNCCNC(=O)c2cccc(C)c2)c(C)nn1C`, 3.54%. Turning to `COc1cc(CNCC2CN(C3CC3)CCO2)cc(OC)c1` (stereo not given), the cytotoxicity at 70.5 h was -2.94%. For the compound `CCc1n[nH]c(C2CN(C(=O)Cc3ccc(C)nc3)CCO2)n1` (stereo not given), the cytotoxicity at 70.5 h was determined as 9.01%. For the compound `CNC(=O)[C@@]12CCCN(c3ncccn3)[C@@H]1CN(c1ncc(F)cn1)C2`, the cytotoxicity at 70.5 h was -0.144%. As for `COCCN(C)C(=O)c1nc2c(s1)CCCN2S(C)(=O)=O`, the cytotoxicity at 70.5 h is 3.66%.

In the case of `COc1cc(OC)c(C2CC(=O)Oc3cc(C)[nH]c(=O)c32)cc1OC` (stereo not given), the cytotoxicity at 70.5 h was -19.4%. Then `CSc1ccc(C(=O)N2CC(=O)N(CC3CC3)CC(O)C2)cc1` (stereo not given), with 2.74%; and `Cc1cscc1C(=O)NC1CC(=O)N(C(C)C)C1=O` (stereo not given), with -4.89%; and `O=C(CCOc1cccc(F)c1)N1CCCC(n2cccn2)C1` (stereo not given), with -2.03%. With `CNc1nc(C)c(C(=O)N2CCCCC2CN2CCCCCC2)s1` (stereo not given), the cytotoxicity at 70.5 h is -17.9%.

With `C[C@@H]1CN(C(=O)NC2CC2)C[C@]12CCN(c1ccsc1)C2=O`, the cytotoxicity at 70.5 h is -3.3%. As for `CCN(c1ccc(C(=O)N2CCCCCC2)cc1)S(=O)(=O)CC`, the figure is -2.32%; as for `CN(C)CCNc1cc(-c2ncccc2C(F)(F)F)c2cc[nH]c2n1`, -6.02%. On to `CSc1ccc(-c2nc(CN3CCC(NC(C)=O)C3)c(C)o2)cc1` (stereo not given), for which the cytotoxicity at 70.5 h is -1.58%. As for `O=C(c1cnc[nH]1)N1CCC(Oc2cccnc2)CC1`, the cytotoxicity at 70.5 h was -8.28%. With `O=C1CC2(CCCC2)CC(=O)N1Cc1ncccn1`, the cytotoxicity at 70.5 h amounted to 19.8%. Then `COc1ccc(NC(C)=O)cc1OCc1cccnc1`, with 29.5%. Then `COCCC1COC2(CCN(C(=O)C3CCCC3)CC2)C1` (stereo not given), with -6.45%; and `CSc1ccc(CNC(=O)Cc2c(C)n[nH]c2C)cc1`, with -6.16%. As for `NC(=O)NC(=O)CCSCc1coc(-c2ccc(F)cc2)n1`, the figure is -3.5%; as for `COC(=O)[C@@H]1CN(C(=O)NC(C)C)CCN1S(=O)(=O)c1ccccc1`, -2.94%. Turning to `CCS(=O)(=O)N1CCc2ccc(NC(=O)NC3CCCCC3)cc21`, the cytotoxicity at 70.5 h is -7.09%. Then `CN(C)c1ccc(C(=O)N2CCCC(n3cncn3)C2)nn1` (stereo not given), with -5.16%.
